Laboratory results taken from patent publication US20070059778A1, “Modified colony assay” (priority 2005, published 2007).

System: erythroid colonies (hematopoietic progenitors)
Assay: Hematopoietic CFC assay with anti-GpA-FITC staining, erythroid colony formation in cultures containing 5-FU
Format: cell-based, Human
Conditions: erythroid colonies stained with anti-GPA-FITC, day 14, densitometry
Description: Human BM, CB or MPB mononuclear cells were suspended in a methylcellulose-based culture medium containing cytokines (MethoCult™ H4434, StemCell Technologies) (StemCell Technologies Methocult™ Flyer; StemCell Technologies 2003 Catalogue pp. 86-125) at a concentration of between 1×10^4 and 1×10^5 cells per 1.1 mL of medium. The culture medium was then dispensed into 35 mm culture dishes using 3 mL syringes with blunt end needles, with 1.1 mL of medium per dish. All cultures were incubated for a total of 14 days at 37° C., 5% CO2, 100% humidity. Colonies were enumerated and classified by bright-field microscopy into the following categories based on size and morphology: CFU-E, BFU-E, CFU-GM, CFU-GEMM (StemCell Technologies Colony Atlas).
Standard CFC assays were prepared as described in example 1. […] After 14 days of culture at 37° C. the dishes were inspected using an inverted fluorescence microscope. […] The erythroid colonies were counted using bright field and fluorescence. Both methods gave very similar results: 27 colonies per dish by bright field illumination; 26 colonies by fluorescence.
A CFC-assay was set up as described in Example 2. […] Colonies were examined and photographed on day 14 and colony size and fluorescence intensity were analysed by densitometry.

O=c1[nH]cc(F)c(=O)[nH]1 [5-FU, 5-Fluoro-Uracil]
size of fluorescent colonies, as measured by surface area and perimeter length (versus cultures without 5-FU (FIG. 4A)): decreased | fluorescence intensity of colonies (versus cultures without 5-FU (FIG. 4B)): decreased
